According to paper PMC4521012, “Distortion of the Major Histocompatibility Complex Class I Binding Groove to Accommodate an Insulin-derived 10-Mer Peptide” (The Journal of Biological Chemistry, 2015):

Experiments:
G9C8 TCR = experiment: Surface plasmon resonance analysis of G9C8 TCR binding to peptide-H-2K^d; design: species or system NOD mouse; conditions: SPR, 25 °C
Protocol: Binding analysis was performed using a BIAcore 3000^TM equipped with a CM5 sensor chip as described previously ([41]). Binding analysis was performed four times in independent experiments using pMHC monomers generated in house and from the National Institutes of Health tetramer facility. Approximately 200–500 RU of peptide-H-2K^d (in complex with G9GF, G9G, or G9V) was attached to the CM5 sensor chip at a slow flow rate of 10 μl/min to ensure uniform distribution on the chip surface. Combined with the small amount of peptide-H-2K^d bound to the chip surface, this reduced the likelihood of off-rate-limiting mass transfer effects. The G9C8 TCR was purified and concentrated to ∼140 μM on the same day of surface plasmon resonance analysis to reduce the likelihood of TCR aggregation affecting the results. For equilibrium analysis, eight serial dilutions were prepared in triplicate for each sample and injected over the relevant sensor chips at 25 °C. TCR was injected over the chip surface using kinetic injections at a flow rate of 45 μl/min using H-2K^d·AYAAAAAAV or HLA-A*0201·ALWGPDPAAA in different experiments as negative controls.

[1] = system: G9C8 T-cell clone (insulin-reactive CD8+ T-cells); experiment: Staining of insulin-specific CD8 T-cells with H-2K^d·peptide tetramers; type: cell-based, NOD mouse; conditions: flow cytometry; for Tetramer+ (% of G9C8 clone stained by H-2K^d·peptide tetramer): splenocytes of G9Cα−/− NOD mice, 50 nM dasatinib preincubation, 0.5 μg tetramer, 15 min at 37 °C, gated on live CD8+ cells
H-2K^d = H-2K^d (Mus musculus, UniProt P01902); experiment: pMHC stability assay (thermal stability by CD spectroscopy); type: physicochemical, murine; conditions: CD spectroscopy at 218 nm, 2.5 μM protein in PBS, 4-90 °C in 0.5 °C intervals, two-state trimer-to-monomer fit
Protocol: Thermal stability of H-2K^d complexes was assessed by circular dichroism (CD) spectroscopy, monitoring the change in ellipticities at 218 nm. Data were collected on an Aviv Model 215 spectropolarimeter (Aviv Biomedical Inc., Lakewood, NJ) using a 0.1-cm quartz cell. Proteins were dissolved in PBS at concentrations of 2.5 μM. Melting curves were recorded in 0.5 °C intervals from 4 °C up to a maximum temperature of 90 °C when protein aggregation was observed. Melting curves were analyzed assuming a two-state trimer-to-monomer transition from the native (N) to unfolded (U) conformation N3 ↔ 3U with an equilibrium constant K = [U]^3/[N3] = F/(3c^2(1 − F)^3), where F and c are the degree of folding and protein concentration, respectively. Data were fitted as described ([38]). Fitted parameters were the melting temperature (Tm), van't Hoff's enthalpy (ΔHvH), and the slope and intercept of the native baseline. Because all protein complexes aggregated upon unfolding, the ellipticity of the unfolded state was set as a constant of −4,500 degrees cm^2 dmol^−1 ([39], [40]).

[2] = system: G9C8 T-cell clone (insulin-reactive CD8+ T-cells); experiment: T-cell functional assays (proliferation, MIP1β and IFNγ production); type: cell-based, NOD mouse; conditions: in all assays: [3H]thymidine proliferation, MIP1β and IFNγ ELISA; CD8+ T-cells with bone marrow-derived dendritic cells 10:1
Protocol: Splenic CD8^+ T-cells were purified using a Miltenyi MACS CD8^+ isolation kit (>90% purity) and cultured at 10:1 with bone marrow-derived dendritic cells with the LYLVCGERGF (G9GF), LYLVCGERG (G9G), or LYLVCGERV (G9V) peptide in RPMI medium supplemented with 5% FCS, 2 mM L-glutamine, 0.05 mM 2-mercaptoethanol, penicillin/streptomycin. Each sample was plated in duplicate. After 48 h of incubation, cells were pulsed with 0.5 μCi of [^3H]thymidine for 18 h, harvested, and counted to determine [^3H]thymidine incorporation.
Supernatants were removed from the proliferation assay cultures prior to the addition of [^3H]thymidine. MIP1β was measured by sandwich ELISA (R&D systems), whereas IFNγ was measured using a similar protocol (BD Biosciences) with the modification that the capture antibody was diluted in carbonate buffer and incubated at 4 °C overnight. Plates were blocked at 37 °C for 1 h, and the detection antibody was incubated for 1 h at room temperature.

Sequence of H-2K^d (P01902 whole entry, looked up): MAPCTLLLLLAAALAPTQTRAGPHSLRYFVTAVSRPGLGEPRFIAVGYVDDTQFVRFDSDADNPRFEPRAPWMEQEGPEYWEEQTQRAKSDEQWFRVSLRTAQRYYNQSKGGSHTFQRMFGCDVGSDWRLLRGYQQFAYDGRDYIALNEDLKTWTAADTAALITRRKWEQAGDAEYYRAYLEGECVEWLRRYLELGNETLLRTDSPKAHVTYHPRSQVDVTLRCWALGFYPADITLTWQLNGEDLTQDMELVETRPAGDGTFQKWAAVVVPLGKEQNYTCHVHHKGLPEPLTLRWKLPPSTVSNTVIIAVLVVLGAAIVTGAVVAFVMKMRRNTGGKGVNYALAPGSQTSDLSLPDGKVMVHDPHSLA

With LYLVCGERV [G9V] the “G9C8 TCR affinity for the altered ligand compared with the native ligands (higher)” value (G9C8 TCR) was > 10 times, the “Mean fluorescence intensity of tetramer staining, compared with H-2K^d·G9G tetramer (in words)” value ([1]; different concentrations of each tetramer) was “substantially higher” and the “Tetramer+ (% of G9C8 clone stained by H-2K^d·peptide tetramer)” value [1] was 87.9%. The “Melting temperature of the H-2K^d complex, difference to G9G and G9GF (higher)” value (H-2K^d) was “over 20 °C” and the “Sensitivity of the G9C8 T-cell clone to G9V compared with G9G” value [2] was “at least 5 times”.
With “LYLVCGERG [G9G, native insulin B chain 9-mer peptide, tested as complex or tetramer with H-2K^d]” the “Tetramer+ (% of G9C8 clone stained by H-2K^d·peptide tetramer)” value [1] was 85.7% and the “Sensitivity of the G9C8 T-cell clone to G9G compared with G9GF” value [2] was “about 5 times”.
